Source: US8808715B1, “Methods and compositions for modulating keratinocyte function” (Georgia Regents Research Institute, Inc, priority 2004, dated 2014)

Legend:
Format in all cases: cell-based, mouse
keratinocytes = assay: Release of radiolabel from [14C]glycerol-labeled lipids by bacterial PLD (headgroup position); details: 125 μM calcium pretreatment 24 hours, means±SEM
Procedure: Keratinocytes pretreated for 24 hours with control (25 μM calcium) or 125 μM calcium-containing medium were exposed to 0.4-0.5 μCi/mL [^14C]glycerol for an additional 30 minutes. Lipids were extracted into chloroform/methanol as described above. Dried lipid extracts were then solubilized in phospho lipase buffer (100 mM Tris, pH 7.4, 6 mM MgCl2+0.1% Triton-X100) by extensive vortexing and a short incubation at 37° C. and approximately half of each extract was transferred into a clean tube. Distilled water (untreated) or 1 IU/mL (final concentration) of Streptomyces chromofuscus PLD (Sigma, St. Louis, Mo.) diluted in distilled water (PLD-treated) was then added to each of the lipid extract samples, which were incubated at 37° C. for 60 minutes. Released headgroups were then separated from phospholipids by extraction into the aqueous layer, essentially according to the method of Folch. […] A portion of the upper aqueous layer was then collected and quantified by liquid scintillation spectrometry. PLD-released radioactivity in the aqueous phase was calculated as the amount released in the PLD-treated sample minus the amount detected in the corresponding untreated sample. […] This lipid extract was then separated by thin-layer chromatography and PG and phosphatidic acid in the samples quantified as above.

keratin 5 promoter = assay: Co-transfection analysis, keratin 5 promoter-luciferase reporter; details: 1 mM calcium, 24 hours
Procedure: FIGS. 15A-B illustrate that glycerol, but not xylitol or sorbitol, inhibits DNA synthesis and enhances the inhibitory effect of an elevated extracellular Ca^2+ concentration. (A) Near-confluent keratinocytes were incubated for 24 hours with 0.02 or 0.1% glycerol and DNA synthesis measured as the incorporation of [^3H] thymidine incorporation into DNA. (B) Near-confluent keratinocytes were incubated for 24 hours with the indicated concentrations of glycerol (G, squares) or equivalent concentrations of xylitol (X, circles) in SFKM containing 25 μM (control; open symbols) or 125 μM Ca^2+ (Ca^2+; closed symbols). (C) Near-confluent keratinocytes were incubated for 24 hours with the indicated concentrations of glycerol (G) or equivalent concentrations of sorbitol (S, triangles) in SFKM containing 25 μM (control; open symbols) or 125 μM Ca^2+ (Ca^2+; closed symbols) for 24 hours. [^3H]Thymidine incorporation into DNA was then determined. Values represent the means±SEM of 4 to 5 separate experiments performed in duplicate; *p<0.05, **p<0.01 versus the control value, †p<0.05 versus the value in the presence of Ca^2+ alone. […] After 24 hours cells were refed with medium containing no addition (control) or 0.2% glycerol for an additional 24 hours. Luciferase activity was then measured using a Dual Luciferase kit as directed by the manufacturer. […] The blots were quantified using the Kodak molecular imaging software. […]
The keratin 5 and keratin 10 promoter-luciferase constructs were provided by of Dr. Bogi Andersen (University of California, Irvine, Calif.); the involucrin promoter-luciferase construct was provided by Dr. Daniel Bikle (University of California, San Francisco, Calif.). […] Luciferase activity was then measured using the Dual Luciferase Reporter Assay kit (Promega, Madison, Wis.) as directed by the manufacturer.

keratin 10 promoter = assay: Co-transfection analysis, keratin 10 promoter-luciferase reporter; details: 1 mM calcium, 24 hours
Procedure: The keratin 5 and keratin 10 promoter-luciferase constructs were provided by of Dr. Bogi Andersen (University of California, Irvine, Calif.); the involucrin promoter-luciferase construct was provided by Dr. Daniel Bikle (University of California, San Francisco, Calif.). Sub-confluent (approximately 30%) keratinocytes were transfected using TransIT-Keratinocyte according to the manufacturer's instructions. After 24 hours cells were refed with medium containing 25 μM (control) or 1 mM-Ca^2+ for an additional 24 hours. Luciferase activity was then measured using the Dual Luciferase Reporter Assay kit (Promega, Madison, Wis.) as directed by the manufacturer.

[1] = test system: primary epidermal keratinocytes; assay: Radiolabeled phosphatidylglycerol formation in intact keratinocytes
Procedure: Primary epidermal keratinocytes were prepared from 1-3-day old neonatal ICR mice after trypsin flotation of the skin and mechanical separation of the epidermis from the dermis. The epidermal cells were released by scraping, collected by centrifugation and plated in 6-well dishes in a medium consisting of MEM containing 25 μM calcium, 2% dialyzed fetal bovine serum, 2 mM glutamine, 5 ng/mL EGF, ITS (6.25 μg/mL insulin+6.25 μg/mL transferrin+6.25 ng/mL selenious acid+5.35 μg/mL linoleic acid+1.25% bovine serum albumin), 100 U/mL penicillin, 100 μg/mL streptomycin and 0.25 μg/mL fungizone. After an overnight incubation, the cells were refed with serum-free keratinocyte medium (SFKM), in which 2% dialyzed fetal bovine serum was replaced with 90 μg/mL bovine pituitary extract. Cells were refed with fresh medium every 1-3 days.
For the PLD assay cultured primary keratinocytes were labeled for 20-24 hours with 2.5 μCi/ml [^3H] oleic acid. The cells were then exposed to vehicle or 100 nM PMA in the presence of 0.5% ethanol for 30 minutes. To measure the formation of radiolabeled phosphatidylglycerol, cells were treated for 24 hours with SFKM containing vehicle, 250 nM 1,25-dihydroxyvitamin D3 or 125 μM calcium and then labeled for an additional 30 minutes with 1-2.5 μCi/mL [^3H] or 0.4-0.5 μCi/mL [^14C]glycerol. For experiments investigating the extracellular calcium dependence of PG formation, cells were incubated for 24 hours in SFKM containing various calcium concentrations prior to the addition of 5 μCi/mL [^3H]glycerol for 30 minutes. In some cases, cells were stimulated with 25 μM calcium (control)—or 125 μM calcium-containing SFKM for 24 hours prior to the addition of [^14C]glycerol in the presence and absence of 1% ethanol. To measure phosphatidylglycerol formation in response to PMA, unlabeled cells were stimulated with 100 nM PMA in the presence of radiolabeled glycerol, as above. Reactions were terminated and the radiolabeled phosphatidylalcohol extracted, separated by thin-layer chromatography and quantified as described by Bollag (1998), referenced above.

[Ca+2] [calcium]
radiolabel released into aqueous fraction by bacterial PLD from lipid extracts (keratinocytes; p<0.001): 4.2±0.4 fold over the control level
radioactivity released by bacterial PLD from isolated PG (keratinocytes; p<0.01): 3.3±0.5 fold over the control level
inhibition of keratin 5 promoter activity (keratin 5 promoter): 64%
inhibition of keratin 10 expression (promoter activity) (keratin 10 promoter): 22%
radiolabeled PG formation relative to control cells ([1]; 24 hours pretreatment (250 nM 1,25-dihydroxyvitamin D3 or 125 μM calcium), then [3H]glycerol 30 minutes): induced an increase in the subsequent production of PG
calcium concentration giving maximal stimulation of radiolabeled PG formation ([1]; range 25 μM (control) to 1 mM, 24 hours, biphasic dose dependence): 125 µM
